Ends that are not written are not given here.
Assays:
monocyte-derived DCs = test: Proteolytic activities in live DCs upon TLR ligand maturation; type: cell-based, human
[1] = Cytosolic stability of optimal epitopes in iDC extracts; type: in vitro ADME; conditions: human, iDC cytosolic extract, pH 7.4
[2] = Cytosolic stability of optimal epitopes in iMP extracts; type: in vitro ADME; conditions: human, iMP cytosolic extract, pH 7.4
[3] = 24h post stimulation, maturing over immature cells, n=2 donors

## CCOCc1nc2c([nH]1)c(N)nc1ccccc12 [CL097]
monocyte-derived DCs; 5h, 24h, 48h post stimulation
  change of aminopeptidases hydrolytic activities in maturing DCs: unchanged
  change of chymotryptic activities in maturing DCs: not affected
monocyte-derived DCs; [3]
  decrease of proteasomal caspase-like activity in maturing DCs: 30%
  decrease of proteasomal tryptic activity in maturing DCs: 30%

## CC[C@H](C)[C@H](NC(=O)[C@@H](NC(=O)[C@H](CCC(=O)O)NC(=O)[C@@H]1CCCN1C(=O)[C@H](CO)NC(=O)[C@H](Cc1ccccc1)NC(=O)[C@H](C)NC(=O)[C@@H](N)CCCCN)C(C)C)C(=O)N1CCC[C@H]1C(=O)N[C@@H](CCSC)C(=O)N[C@@H](Cc1ccccc1)C(=O)O [KF11]
[1]
  half-life: 22.1 min
[2]
  half-life: 20.4 min

## ISPRTLNAW [ISW9]
[1]
  half-life: 7 min
[2]
  half-life: 9.4 min
